Experimental data taken from paper PMC11649115, “In vitro safety evaluation of dopamine D3R antagonist, R-VK4-116, as a potential medication for the treatment of opioid use disorder” (PLOS ONE, 2024).
Where two headings read alike, the source gives them in different places.

How the values were obtained:
CYP1A2 mRNA = experiment: CYP induction, mRNA, primary cultured human hepatocytes; assay type: in vitro ADME; details: read-out: CYP1A2 mRNA Fold Induction (fold of vehicle control)
Text: (§1) Rifampicin as a positive control and solvent (0.1% DMSO) vehicle control were also included. The acceptance criteria for CYP induction was ≥ 2-fold induction for significant CYP activity, while the acceptance criteria for CYP mRNA was ≥ 4-fold for significant CYP induction.

[1] = parameters: method as in PMID 31526003; details: rats, 10 mg/kg oral dose ref 8; cited from earlier work
MATE2-K = target: T1, MATE2-K (Homo sapiens, UniProt Q86VL8); experiment: Transporter mediated assay (substrate/inhibitor), MDCK-II cells; assay type: in vitro ADME
T1 construct: expressed in transfected cells; host or cells: MDCK-II cells
T1 sequence (Q86VL8 1-566 isoform Q86VL8-3): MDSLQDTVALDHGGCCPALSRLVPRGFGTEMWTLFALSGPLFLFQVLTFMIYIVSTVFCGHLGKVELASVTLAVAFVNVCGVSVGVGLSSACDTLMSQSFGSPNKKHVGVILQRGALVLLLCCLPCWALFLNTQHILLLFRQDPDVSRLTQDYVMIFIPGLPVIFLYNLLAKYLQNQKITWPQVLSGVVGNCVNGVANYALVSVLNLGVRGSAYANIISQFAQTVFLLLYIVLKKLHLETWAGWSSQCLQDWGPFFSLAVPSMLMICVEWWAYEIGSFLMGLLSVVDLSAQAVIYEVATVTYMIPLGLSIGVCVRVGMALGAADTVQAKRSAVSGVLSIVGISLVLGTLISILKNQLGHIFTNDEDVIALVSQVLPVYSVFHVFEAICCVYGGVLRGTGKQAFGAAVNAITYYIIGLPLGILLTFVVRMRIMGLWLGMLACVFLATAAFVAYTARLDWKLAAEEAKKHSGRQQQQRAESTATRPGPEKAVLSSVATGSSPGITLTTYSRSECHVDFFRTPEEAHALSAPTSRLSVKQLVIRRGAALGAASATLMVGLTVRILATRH
Protocol: The MDCK-II cells were treated to express the transporter of interest. […] For the uptake assay, the net transporter-mediated uptake-rate (V) of the substrate by each SLC transporter was calculated as follows: Transporter–mediatedupdaterate(pmol/min/cm^2)=(Cellularaccumulationincellsexpressingthetransporter)−(Meancellularaccumulationincontrolcells)/Surfacearea×incubationtime
Fold of activity and percent inhibition were determined as follows: Foldofactivity=(Meanuptakerate)transporterexpressingcells/(Meanuptakerate)controlcells Percentinhibition=100−100×(Transport‐mediatedupdaterate)withinhibitor/(Transport‐mediatedupdaterate)vehiclecontrol

human hepatocytes = experiment: Metabolic stability in hepatocyte; details: for % remaining Vs T = 0 min: human hepatocytes
Protocol: CYP3A4 substrate Midazolam (10 μM) was prepared and incubated in the same manner. […] In addition, in vitro half-life (t1/2, min) and intrinsic clearance (CLint, μl/min/10^6 cells) were calculated [10, 11].

24 receptor targets = experiment: Cellular and nuclear receptor functional assays, agonist and antagonist effect (panel); assay type: cell-based; details: 10 μM
Protocol: The purpose of this study was to provide a first step in preliminary safety assessments by providing early identification of potential off-target interactions for the optimization of safety margins. This study was conducted by Eurofins Cerep (France) and Eurofins Discovery (St. Charles, MO). R-VK4-116 was tested in enzyme and uptake assay with 10 enzyme targets (Figs 4 and 5 in S1 File), and cellular and nuclear receptor functional assays with 24 receptor targets (Figs 5 and 6 in S1 File). Compound enzyme inhibition effect was calculated as a % inhibition of control enzyme activity. The cellular agonist effect was calculated as a % of the control response to a known reference agonist for each target, and the cellular antagonist effect was calculated as a % inhibition of the control reference agonist response for each target.

CYP1A2 = target: T2, CYP1A2 (Homo sapiens, UniProt P05177); experiment: CYP inhibition in human liver microsomes; details: human liver microsomes
T2 sequence (P05177 1-516): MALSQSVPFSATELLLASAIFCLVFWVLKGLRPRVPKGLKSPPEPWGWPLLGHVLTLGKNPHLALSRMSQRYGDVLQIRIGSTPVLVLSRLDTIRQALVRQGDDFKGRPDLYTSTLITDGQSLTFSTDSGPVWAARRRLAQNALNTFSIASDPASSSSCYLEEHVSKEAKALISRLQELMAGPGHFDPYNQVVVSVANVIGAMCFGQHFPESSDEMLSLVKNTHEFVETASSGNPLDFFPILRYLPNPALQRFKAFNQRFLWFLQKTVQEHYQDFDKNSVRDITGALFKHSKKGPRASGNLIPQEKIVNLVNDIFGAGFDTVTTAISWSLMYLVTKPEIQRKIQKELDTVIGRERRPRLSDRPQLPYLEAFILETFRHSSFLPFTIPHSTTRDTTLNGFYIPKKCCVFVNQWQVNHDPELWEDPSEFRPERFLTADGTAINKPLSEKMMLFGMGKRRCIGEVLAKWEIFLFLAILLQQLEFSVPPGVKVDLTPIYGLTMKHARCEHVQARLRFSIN

CYP2C8 = target: T3, CYP2C8 (Homo sapiens, UniProt P10632); experiment: CYP inhibition in human liver microsomes; details: human liver microsomes
T3 sequence (P10632 1-490): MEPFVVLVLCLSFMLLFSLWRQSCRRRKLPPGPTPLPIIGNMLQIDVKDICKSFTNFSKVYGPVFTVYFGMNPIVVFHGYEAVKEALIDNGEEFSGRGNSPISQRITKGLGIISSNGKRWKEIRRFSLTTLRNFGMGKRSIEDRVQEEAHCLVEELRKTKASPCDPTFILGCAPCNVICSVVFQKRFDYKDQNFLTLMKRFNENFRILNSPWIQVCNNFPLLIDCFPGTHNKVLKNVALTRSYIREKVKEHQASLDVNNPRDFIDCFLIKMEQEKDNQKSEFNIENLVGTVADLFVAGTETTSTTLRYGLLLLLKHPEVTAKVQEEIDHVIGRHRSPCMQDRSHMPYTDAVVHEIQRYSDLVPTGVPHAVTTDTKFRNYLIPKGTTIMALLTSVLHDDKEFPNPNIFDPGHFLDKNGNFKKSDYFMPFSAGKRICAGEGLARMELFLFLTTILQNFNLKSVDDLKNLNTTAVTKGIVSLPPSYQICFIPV

CYP2B6 = experiment: CYP induction, in situ catalytic activity, human hepatocytes
Text: as §1

CCc1cc(Cl)c(OC)c(N2CCN(CC(O)CCNC(=O)c3cc4ccccc4[nH]3)CC2)c1 (stereo not shown) [R-VK4-116, N-(4-(4-(3-chloro-5-ethyl-2-methoxyphenyl)piperazin-1-yl)-3-hydroxybutyl)-1H-indole-2-carboxamide]
fold induction at 48 h, 0.01 µM (CYP1A2 mRNA; Lot 336, 0.01 μM): 1.1 | fold induction at 48 h, 0.1 µM (CYP1A2 mRNA; Lot 336, 0.1 μM): 1.2 | fold induction at 48 h, 1 µM (CYP1A2 mRNA; Lot 336, 1 μM): 1.6 | fold induction at 48 h, 3 µM (CYP1A2 mRNA; Lot 336, 3 μM): 1.9 | fold induction at 48 h, 5 µM (CYP1A2 mRNA; Lot 336, 5 μM): 1.8 | fold induction at 48 h, 10 µM (CYP1A2 mRNA; Lot 336, 10 μM): 1.9 | fold induction at 48 h, 0.01 µM (CYP1A2 mRNA; Lot 348B, 0.01 μM): 1.1 | fold induction at 48 h, 0.1 µM (CYP1A2 mRNA; Lot 348B, 0.1 μM): 1.4 | fold induction at 48 h, 1 µM (CYP1A2 mRNA; Lot 348B, 1 μM): 1.3 | fold induction at 48 h, 3 µM (CYP1A2 mRNA; Lot 348B, 3 μM): 1.5 | fold induction at 48 h, 5 µM (CYP1A2 mRNA; Lot 348B, 5 μM): 1.6 | fold induction at 48 h, 10 µM (CYP1A2 mRNA; Lot 348B, 10 μM): 1.5 | fold induction at 48 h, 0.01 µM (CYP1A2 mRNA; Lot 399, 0.01 μM): 1.6 | fold induction at 48 h, 0.1 µM (CYP1A2 mRNA; Lot 399, 0.1 μM): 1.8 | fold induction at 48 h, 1 µM (CYP1A2 mRNA; Lot 399, 1 μM): 1.7 | fold induction at 48 h, 3 µM (CYP1A2 mRNA; Lot 399, 3 μM): 1.9 | fold induction at 48 h, 5 µM (CYP1A2 mRNA; Lot 399, 5 μM): 1.6 | fold induction at 48 h, 10 µM (CYP1A2 mRNA; Lot 399, 10 μM): 1.6 | Cmax [1]: 454 nM | fold difference in mean uptake rate (substrate test) (MATE2-K; 1 μM, transporter cells vs control cells): < 2 fold | inhibition at 10 µM (MATE2-K; human, polarized monolayer of MDCK-II cells expressing MATE2-K, 0.1% BSA, 10 μM): 37.8 ± 9.26% | % remaining Vs T = 0 min (human hepatocytes; 0.5 μM, 0 min): 100.0% | % remaining Vs T = 0 min (human hepatocytes; 0.5 μM, 30 min): 89.1% | % remaining Vs T = 0 min (human hepatocytes; 0.5 μM, 60 min): 78.4% | % remaining Vs T = 0 min (human hepatocytes; 0.5 μM, 90 min): 65.4% | % remaining Vs T = 0 min (human hepatocytes; 0.5 μM, 120 min): 48.1% | % remaining Vs T = 0 min (human hepatocytes; 10 μM, 0 min): 100.0% | % remaining Vs T = 0 min (human hepatocytes; 10 μM, 30 min): 93.2% | % remaining Vs T = 0 min (human hepatocytes; 10 μM, 60 min): 85.5% | % remaining Vs T = 0 min (human hepatocytes; 10 μM, 90 min): 78.9% | % remaining Vs T = 0 min (human hepatocytes; 10 μM, 120 min): 79.7% | metabolic stability (human hepatocytes; human, rat, or dog hepatocytes, 0.5 and 10 μM): metabolically stable | agonist and antagonist effects for most of the targets (24 receptor targets): did not exhibit agonist and antagonist effects | CYP1A2 inhibition (CYP1A2; up to 100 μM): did not inhibit CYP significantly | activity at 20 min, 0.1 µM (CYP1A2; human, probe phenacetin): 93.7 ± 5.5% | activity at 20 min, 0.3 µM (CYP1A2; human, probe phenacetin): 87.7 ± 2.4% | activity at 20 min, 1 µM (CYP1A2; human, probe phenacetin): 89.9 ± 0.9% | activity at 20 min, 3 µM (CYP1A2; human, probe phenacetin): 95.7 ± 5.2% | activity at 20 min, 10 µM (CYP1A2; human, probe phenacetin): 96.3 ± 4.7% | activity at 20 min, 30 µM (CYP1A2; human, probe phenacetin): 88.7 ± 1.9% | activity at 20 min, 60 µM (CYP1A2; human, probe phenacetin): 88.2 ± 2.3% | activity at 20 min, 100 µM (CYP1A2; human, probe phenacetin): 94 ± 5.2% | CYP2C8 inhibition (CYP2C8; up to 100 μM): did not inhibit CYP significantly | activity at 20 min, 0.1 µM (CYP2C8; human, probe paclitaxel): 85.9 ± 18.2% | activity at 20 min, 0.3 µM (CYP2C8; human, probe paclitaxel): 68.2 ± 2.8% | activity at 20 min, 1 µM (CYP2C8; human, probe paclitaxel): 70.5 ± 7.1% | activity at 20 min, 3 µM (CYP2C8; human, probe paclitaxel): 95.7 ± 11.2% | activity at 20 min, 10 µM (CYP2C8; human, probe paclitaxel): 89.8 ± 19.7% | activity at 20 min, 30 µM (CYP2C8; human, probe paclitaxel): 75.8 ± 4.5% | activity at 20 min, 60 µM (CYP2C8; human, probe paclitaxel): 75.3 ± 6.4% | activity at 20 min, 100 µM (CYP2C8; human, probe paclitaxel): 80.6 ± 15.2% | Fold of Vehicle Control (CYP2B6 activity, bupropion hydroxylation) (CYP2B6; hepatocyte Lot 336, 0.01 µM): 1.2 fold | Fold of Vehicle Control (CYP2B6 activity, bupropion hydroxylation) (CYP2B6; hepatocyte Lot 336, 0.1 µM): 1.1 fold | Fold of Vehicle Control (CYP2B6 activity, bupropion hydroxylation) (CYP2B6; hepatocyte Lot 336, 1 µM): 1.1 fold | Fold of Vehicle Control (CYP2B6 activity, bupropion hydroxylation) (CYP2B6; hepatocyte Lot 336, 3 µM): 1.1 fold | Fold of Vehicle Control (CYP2B6 activity, bupropion hydroxylation) (CYP2B6; hepatocyte Lot 336, 5 µM): 1.1 fold | Bupropion Hydroxylation (CYP2B6; hepatocyte Lot 336, 10 µM): 0.97 pmol/min/106 cells | Fold of Vehicle Control (CYP2B6 activity, bupropion hydroxylation) (CYP2B6; hepatocyte Lot 336, 10 µM): 1.1 fold | Bupropion Hydroxylation (CYP2B6; hepatocyte Lot 348B, 0.01 µM): 5.0 pmol/min/106 cells | Fold of Vehicle Control (CYP2B6 activity, bupropion hydroxylation) (CYP2B6; hepatocyte Lot 348B, 0.01 µM): 1.1 fold | Bupropion Hydroxylation (CYP2B6; hepatocyte Lot 348B, 0.1 µM): 4.5 pmol/min/106 cells | Fold of Vehicle Control (CYP2B6 activity, bupropion hydroxylation) (CYP2B6; hepatocyte Lot 348B, 0.1 µM): 1.0 fold | Bupropion Hydroxylation (CYP2B6; hepatocyte Lot 348B, 1 µM): 4.5 pmol/min/106 cells | Fold of Vehicle Control (CYP2B6 activity, bupropion hydroxylation) (CYP2B6; hepatocyte Lot 348B, 1 µM): 1.0 fold | Bupropion Hydroxylation (CYP2B6; hepatocyte Lot 348B, 3 µM): 4.1 pmol/min/106 cells | Fold of Vehicle Control (CYP2B6 activity, bupropion hydroxylation) (CYP2B6; hepatocyte Lot 348B, 3 µM): 0.94 fold | Bupropion Hydroxylation (CYP2B6; hepatocyte Lot 348B, 5 µM): 3.8 pmol/min/106 cells | Fold of Vehicle Control (CYP2B6 activity, bupropion hydroxylation) (CYP2B6; hepatocyte Lot 348B, 5 µM): 0.85 fold | Bupropion Hydroxylation (CYP2B6; hepatocyte Lot 348B, 10 µM): 3.9 pmol/min/106 cells | Fold of Vehicle Control (CYP2B6 activity, bupropion hydroxylation) (CYP2B6; hepatocyte Lot 348B, 10 µM): 0.89 fold | Fold of Vehicle Control (CYP2B6 activity, bupropion hydroxylation) (CYP2B6; hepatocyte Lot 399, 0.01 µM): 1.0 fold | Fold of Vehicle Control (CYP2B6 activity, bupropion hydroxylation) (CYP2B6; hepatocyte Lot 399, 0.1 µM): 1.0 fold | Fold of Vehicle Control (CYP2B6 activity, bupropion hydroxylation) (CYP2B6; hepatocyte Lot 399, 1 µM): 1.1 fold | Fold of Vehicle Control (CYP2B6 activity, bupropion hydroxylation) (CYP2B6; hepatocyte Lot 399, 3 µM): 1.2 fold | Fold of Vehicle Control (CYP2B6 activity, bupropion hydroxylation) (CYP2B6; hepatocyte Lot 399, 5 µM): 1.1 fold | Fold of Vehicle Control (CYP2B6 activity, bupropion hydroxylation) (CYP2B6; hepatocyte Lot 399, 10 µM): 1.1 fold
